± gives the expanded uncertainty stated by the source.
Conditions: Liquid, Vibrating tube method

CC(C)(N)CO [2-amino-2-methylpropan-1-ol]
mass density [kg/m3]
Conditions | 313.06 K | 322.98 K | 332.91 K | 342.84 K | 352.79 K | 362.65 K
500 kPa | – | 922.7 ± 4.6 | 914 ± 4.5 | 905.4 ± 4.5 | 896.8 ± 4.4 | –
504 kPa | – | – | – | – | – | 888 ± 4.3
1000 kPa | 931.4 ± 4.7 | 922.8 ± 4.6 | 914.4 ± 4.6 | 905.7 ± 4.5 | 897.2 ± 4.4 | –
1002 kPa | – | – | – | – | – | 888.4 ± 4.3
2000 kPa | 931.9 ± 4.7 | 923.4 ± 4.6 | 915 ± 4.6 | 906.4 ± 4.5 | 897.9 ± 4.4 | 889 ± 4.3
3000 kPa | 932.4 ± 4.7 | 924 ± 4.6 | 915.6 ± 4.6 | 907 ± 4.5 | 898.5 ± 4.4 | 889.7 ± 4.3
4000 kPa | 932.9 ± 4.7 | 924.5 ± 4.7 | 916.1 ± 4.6 | 907.6 ± 4.5 | – | 890.5 ± 4.3
4001 kPa | – | – | – | – | 899.2 ± 4.4 | –
5000 kPa | 933.5 ± 4.7 | 925.1 ± 4.7 | 916.7 ± 4.6 | 908.3 ± 4.5 | 899.9 ± 4.4 | 891.2 ± 4.4
6000 kPa | 933.9 ± 4.8 | 925.7 ± 4.7 | 917.3 ± 4.6 | 908.9 ± 4.5 | 900.5 ± 4.4 | 891.8 ± 4.4
7000 kPa | 934.5 ± 4.8 | 926.2 ± 4.7 | 918 ± 4.6 | 909.5 ± 4.5 | – | 892.5 ± 4.4
7001 kPa | – | – | – | – | 901.2 ± 4.5 | –
8000 kPa | 935 ± 4.8 | 926.8 ± 4.7 | 918.5 ± 4.6 | – | 901.8 ± 4.5 | –
8001 kPa | – | – | – | 910.1 ± 4.5 | – | 893.2 ± 4.4
9007 kPa | 935.5 ± 4.8 | 927.4 ± 4.7 | – | – | – | –
9009 kPa | – | – | 919.1 ± 4.6 | 910.7 ± 4.5 | 902.4 ± 4.5 | –
9010 kPa | – | – | – | – | – | 893.9 ± 4.4
10002 kPa | – | 927.8 ± 4.7 | – | – | – | –
10003 kPa | 936 ± 4.8 | – | 919.7 ± 4.6 | 911.3 ± 4.6 | 903.1 ± 4.5 | 894.6 ± 4.4
11000 kPa | 936.6 ± 4.8 | 928.4 ± 4.7 | – | – | – | –
11001 kPa | – | – | – | 911.9 ± 4.6 | 903.7 ± 4.5 | 895.2 ± 4.4
11002 kPa | – | – | 920.2 ± 4.6 | – | – | –
12000 kPa | 937 ± 4.8 | 928.9 ± 4.7 | – | 912.5 ± 4.6 | 904.3 ± 4.5 | 895.8 ± 4.4
12001 kPa | – | – | 920.8 ± 4.6 | – | – | –
13000 kPa | 937.6 ± 4.8 | 929.5 ± 4.7 | 921.3 ± 4.7 | 913.1 ± 4.6 | – | –
13001 kPa | – | – | – | – | 904.9 ± 4.5 | 896.5 ± 4.4
14000 kPa | 938.1 ± 4.8 | 930.1 ± 4.7 | 921.9 ± 4.7 | 913.6 ± 4.6 | 905.5 ± 4.5 | 897.1 ± 4.4
15002 kPa | 938.6 ± 4.8 | – | 922.4 ± 4.7 | – | 906.1 ± 4.5 | –
15003 kPa | – | 930.6 ± 4.7 | – | 914.3 ± 4.6 | – | 897.8 ± 4.5
16000 kPa | 939.1 ± 4.8 | – | – | – | – | –
16001 kPa | – | – | 923 ± 4.7 | 914.8 ± 4.6 | 906.7 ± 4.5 | 898.4 ± 4.5
16006 kPa | – | 931.1 ± 4.8 | – | – | – | –
17000 kPa | – | – | – | – | – | 899.1 ± 4.5
17001 kPa | 939.7 ± 4.8 | 931.6 ± 4.8 | 923.5 ± 4.7 | 915.3 ± 4.6 | 907.4 ± 4.5 | –
18002 kPa | 940.2 ± 4.8 | 932.1 ± 4.8 | 924.1 ± 4.7 | 915.9 ± 4.6 | 907.9 ± 4.6 | 899.7 ± 4.5
18997 kPa | – | – | – | – | 908.5 ± 4.6 | –
19000 kPa | 940.6 ± 4.8 | 932.6 ± 4.8 | 924.6 ± 4.7 | 916.5 ± 4.6 | – | 900.3 ± 4.5
20029 kPa | 941.1 ± 4.9 | – | – | – | – | –
20030 kPa | – | 933.2 ± 4.8 | 925.2 ± 4.7 | 917.1 ± 4.6 | 909.1 ± 4.6 | 901 ± 4.5
21001 kPa | – | – | – | – | 909.7 ± 4.6 | –
21002 kPa | – | – | 925.6 ± 4.7 | – | – | –
21004 kPa | 941.7 ± 4.9 | – | – | – | – | 901.6 ± 4.5
21005 kPa | – | 933.7 ± 4.8 | – | 917.6 ± 4.6 | – | –
22004 kPa | 942.1 ± 4.9 | 934.1 ± 4.8 | 926.2 ± 4.7 | 918.1 ± 4.7 | 910.3 ± 4.6 | 902.2 ± 4.5
23000 kPa | – | – | 926.7 ± 4.7 | 918.7 ± 4.7 | 910.9 ± 4.6 | 902.8 ± 4.5
24003 kPa | – | – | – | – | – | 903.3 ± 4.5
24004 kPa | 943.1 ± 4.9 | 935.2 ± 4.8 | 927.3 ± 4.7 | 919.2 ± 4.7 | 911.4 ± 4.6 | –

Source: the NIST ThermoML archive (doi:10.1021/je700406p)
